Data set [1] relates to ulcer caused by indomethacin (mucosal lesions in the glandular part of the stomach). Nature of the data set: Effect on ulcer caused by indomethacin. In kind it is in vivo, male SD rats. The settings on record: Rattus norvegicus, ip, read-out: % Inhibition of lesion formation.
Description: Indomethacin is subcutaneously administered to male SD rats (body weight: 200-220 g) fasted for 24 hours at a dose of 30 mg/kg. The stomachs are excised 7 hours after the administration. The total length of mucosal lesions occurred in the glandular part of the stomach is measured and % inhibition of lesion formation is calculated in comparison with those in the control group. Fifteen minutes before the administration of indomethacin, the test compounds are intraperitoneally administered in a form of aqueous solution.
The next data set in a line: Acute Toxicities. As to conditions: mouse, in vivo, ip; intraperitoneal, aqueous solution; male ddY mice.
[2] abbreviates: 0.3 mg/Kg, intraperitoneal, 15 min before indomethacin 30 mg/kg s.c., male SD rats, 7 hours.
[3] abbreviates: 1.0 mg/Kg, intraperitoneal, 15 min before indomethacin 30 mg/kg s.c., male SD rats, 7 hours.
The mark [4] stands for this setting: 3.0 mg/Kg, intraperitoneal, 15 min before indomethacin 30 mg/kg s.c., male SD rats, 7 hours.

Where two headings read alike, the source gives them in different places. A value given as a limit tells only on which side of the number the result lay.

Excerpt for Acute Toxicities: Male ddY mice (Body weight 25-28 g each) are employed for the acute toxicity test. The test compounds are intraperitoneally administered in a form of aqueous solution.

Regarding `C=C1[C@@H](O)[C@]2(O)OC[C@]34[C@H]2[C@@]2(C)[C@H](O)C(=O)CC(C)[C@@H]2C[C@H]3OC(=O)[C@H](O)[C@@]14O` (single isomer, unassigned) [IIh, 3,4-Dihydroeurycomanone], the inhibition in vivo at 3 mg/kg in data set [1] (7 h) is -10%.
For `CC1=CC(=O)[C@@H](O)[C@]2(C)[C@H]3[C@@]4(O)OC[C@@]35[C@@H](C[C@@H]12)OC(=O)C[C@H]5[C@]1(CO1)[C@H]4O` [IIa, 13α,18-Epoxy-13,18-dihydroailanthone], the inhibition in vivo at 0.3 mg/kg in data set [1] (setting [2]) was 36.8%. Moreover, the inhibition in vivo at 1 mg/kg in data set [1] (setting [3]) turned out to be 77.1%. Besides, the inhibition in vivo at 3 mg/kg in data set [1] (setting [4]) turned out to be 100%. Also, the LD50 in “Acute Toxicities” is more than 100 mg/kg.
Turning to `CC1=CC(=O)[C@@H](O)[C@]2(C)[C@H]3[C@@]4(O)OC[C@@]35[C@@H](C[C@@H]12)OC(=O)C[C@H]5[C@@]1(CO1)[C@H]4O` [IIb, 13β,18-Epoxy-1,3,18-dihydroailanthone], in data set [1] (setting [4]), the inhibition in vivo at 3 mg/kg was found to be 74.4%. The molecule also displayed an LD50 in “Acute Toxicities” of more than 30 mg/kg.
With `CC1CC(=O)[C@@H](O)[C@]2(C)[C@H]3[C@@]4(O)OC[C@@]35[C@@H](C[C@@H]12)OC(=O)C[C@H]5C(C)[C@H]4O` (stereo partly shown) [IIc, 3,4,13,18-Tetrahydroailanthone], the inhibition in vivo at 3 mg/kg in data set [1] (setting [4]) turned out to be 13.7%. The molecule further yielded an LD50 in the data set “Acute Toxicities” of more than 30 mg/kg.
In the case of `CC1=CC(=O)[C@@H](O)[C@]2(C)[C@H]3[C@@]4(O)OC[C@@]35[C@@H](C[C@@H]12)OC(=O)C[C@H]5C(C)[C@H]4O` (stereo partly shown) [IId, 13,18-dihydroailanthone], the inhibition in vivo at 3 mg/kg in data set [1] (7 h) worked out at 67.8%. The molecule further gave an LD50 in the data set “Acute Toxicities” of more than 30 mg/kg.
Take `CC1=CC(=O)[C@@H](O)[C@]2(C)[C@H]3[C@@]4(O)OC[C@@]35[C@@H](C[C@@H]12)OC(=O)[C@H](O)[C@@]5(O)[C@]1(CO1)[C@H]4O` [IIe, 13α,18-Epoxy-13,18-dihydroeurycomanone]: the inhibition in vivo at 3 mg/kg in data set [1] (7 h) came to 4.9%.
Regarding `CC1=CC(=O)[C@@H](O)[C@]2(C)[C@H]3[C@@]4(O)OC[C@@]35[C@@H](C[C@@H]12)OC(=O)[C@H](O)[C@@]5(O)[C@@]1(CO1)[C@H]4O` [IIf, 13β,18-Epoxy-13,18-dihydroeurycomanone], in data set [1] (7 h), the inhibition in vivo at 0.1 mg/kg was 26.4%, the inhibition in vivo at 0.3 mg/kg amounted to 71.3% and the inhibition in vivo at 1 mg/kg was determined as 92.6%. Besides, the median lethal dose (LD50) in the data set “Acute Toxicities” stood at 5.5 mg/kg.
For `CC1=CC(=O)[C@@H](O)[C@]2(C)[C@H]3[C@@]4(O)OC[C@@]35[C@@H](C[C@@H]12)OC(=O)[C@H](O)[C@@]5(O)[C@@H](C)[C@H]4O` [IIg-A, 13β,18-Dihydro compound], in data set [1] (7 h), the inhibition in vivo at 3 mg/kg was 47.1%.
On the same count and under the same terms, then `CC1=CC(=O)[C@@H](O)[C@]2(C)[C@H]3[C@@]4(O)OC[C@@]35[C@@H](C[C@@H]12)OC(=O)[C@H](O)[C@@]5(O)[C@H](C)[C@H]4O` [IIg-B, 13α,18-Dihydro compound], with -3.1%.
Turning to `C=C1[C@@H](O)[C@]2(O)OC[C@]34[C@H]2[C@@]2(C)[C@H](O)C(=O)C=C(C)[C@@H]2C[C@H]3OC(=O)[C@H](O)[C@@]14O` [Ib, eurycomanone], the inhibition in vivo at 0.1 mg/kg in data set [1] (0.1 mg/Kg, intraperitoneal, 15 min before indomethacin 30 mg/kg s.c., male SD rats, 7 hours) was 12.5%. Further, the inhibition in vivo at 0.3 mg/kg in data set [1] (setting [2]) amounted to 58.5%. The inhibition in vivo at 1 mg/kg in data set [1] (setting [3]) worked out at 94.7%. In addition, the 50% lethal dose (LD50) in “Acute Toxicities” came out at 18.9 mg/kg.

A word on the LD50: it is the dose at which mortality reaches 50%. High values mean a less toxic substance, low ones a more toxic substance.

(Values after US4731459A, “Novel anti-ulcer agents and quassinoids” (Shionogi & Co., Ltd., priority 1985, dated 1988).)
